Residues, ends and D or L forms follow the SMILES beside them. *: point of attachment. Cbz = O=C(OCc1ccccc1)*; CH2F = FC*
How the values were obtained:
786-O cells [1] = test: Cell viability / proliferation; assay type: cell-based, Human; conditions: varying doses, 48hrs
786-O cells [2] = test: Induction of apoptosis by immunoblotting of apoptotic markers; assay type: cell-based, Human
recombinant PP5-His6 = target: T1, recombinant PP5-His6 (Homo sapiens, UniProt P53041); test: PP5 phosphatase activity and inhibition assay; assay type: biochemical; conditions: phospho-S211-GR peptide substrate
T1 sequence (P53041 1-499): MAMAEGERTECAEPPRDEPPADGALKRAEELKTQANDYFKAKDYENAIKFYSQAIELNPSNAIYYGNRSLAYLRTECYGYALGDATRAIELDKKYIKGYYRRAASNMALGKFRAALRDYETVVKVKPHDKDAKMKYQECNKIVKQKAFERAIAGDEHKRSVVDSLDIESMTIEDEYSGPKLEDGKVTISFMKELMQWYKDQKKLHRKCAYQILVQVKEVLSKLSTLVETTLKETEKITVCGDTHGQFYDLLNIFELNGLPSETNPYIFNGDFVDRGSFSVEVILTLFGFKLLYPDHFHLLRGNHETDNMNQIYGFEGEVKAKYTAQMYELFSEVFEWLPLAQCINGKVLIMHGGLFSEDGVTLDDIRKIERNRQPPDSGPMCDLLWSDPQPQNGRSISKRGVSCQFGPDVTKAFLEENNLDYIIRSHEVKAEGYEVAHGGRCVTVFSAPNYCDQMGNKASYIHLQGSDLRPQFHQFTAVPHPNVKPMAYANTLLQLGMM

VHL-null ccRCC cells = test: Propidium iodide staining, cell death by flow cytometry; assay type: cell-based, Human; conditions: 30 or 40μM, A498 and 786-O versus Caki-1 and Caki-2; dose dependent
A498 cells = test: Phosphorylation of S194-FADD by western blot; assay type: cell-based, Human; conditions: indicated amounts, 24hrs
786-O cells [3] = test: Phosphorylation of S194-FADD by western blot; assay type: cell-based, Human; conditions: indicated amounts, 24hrs
[4] = system: VHL-null ccRCC cell lines; conditions: ref [2]; cited from earlier work
PP1 = conditions: ref [52]-[54]; cited from earlier work
PP5 = conditions: ref [52]-[54]; cited from earlier work
HEK293 cells = test: Hsp90 inhibition time course, protein levels by immunoblot; assay type: cell-based, Human; conditions: 2μM
PP2A = test: Biotinylated compound pulldown from 786-O lysate, co-pulldown of PP2A; assay type: binding, Human; conditions: 1μM
PP5-FLAG = target: T2, PP5-FLAG (Homo sapiens, UniProt P53041); test: Biotin-P5 and biotin-P13 streptavidin pulldown from HEK293 lysate; assay type: binding; conditions: for binding to PP5-FLAG (co-pulldown): HEK293 lysate, 0.01-10μM biotinylated compound
T2 sequence (P53041 1-499): T1 sequence (P53041 1-499)

[5] = system: PP5-FLAG active site point mutants; test: Biotin-P13 streptavidin pulldown of PP5 active site point mutants; assay type: binding, Human
[6] = target: T3, PP5-FLAG active site point mutants (Homo sapiens, UniProt P53041, R400A); test: as above; assay type: binding; conditions: R400A mutant
T3 sequence (P53041 2-499 R400A): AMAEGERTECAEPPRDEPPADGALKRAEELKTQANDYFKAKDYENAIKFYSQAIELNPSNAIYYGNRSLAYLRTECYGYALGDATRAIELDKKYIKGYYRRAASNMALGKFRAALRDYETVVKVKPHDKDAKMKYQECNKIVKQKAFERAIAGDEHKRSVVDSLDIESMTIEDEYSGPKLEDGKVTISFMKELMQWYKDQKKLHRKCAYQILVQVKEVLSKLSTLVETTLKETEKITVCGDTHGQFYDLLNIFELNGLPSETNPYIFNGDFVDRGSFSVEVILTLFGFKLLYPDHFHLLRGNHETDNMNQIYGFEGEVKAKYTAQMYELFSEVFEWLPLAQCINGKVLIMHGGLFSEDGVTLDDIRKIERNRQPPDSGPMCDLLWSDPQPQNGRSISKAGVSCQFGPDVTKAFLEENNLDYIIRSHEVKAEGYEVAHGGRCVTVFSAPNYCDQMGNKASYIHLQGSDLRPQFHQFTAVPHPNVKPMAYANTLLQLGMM

SMILES: COC(=O)c1cccc(NS(=O)(=O)c2c(C)noc2C)c1 [Compound P5, Methyl m-(3,5-dimethyl-4-isoxazolylsulfonylamino)benzoate]
- proliferation of 786-O cells (MTT) (786-O cells [1]): significantly inhibited the proliferation
- cleavage of apoptotic markers (immunoblot) (786-O cells [2]; 10μM, 24hrs): cleavage of the apoptotic markers caspase 3 and 8 and PARP
- mode of PP5 inhibition (enzyme kinetics, Lineweaver-Burk plot) (recombinant PP5-His6): competitive inhibitors

SMILES: Cc1ccc(NS(=O)(=O)c2c(C)noc2C)cc1C [Compound P13, (3,5-Dimethyl-4-isoxazolylsulfonyl)(3,4-xylyl)amine]
- proliferation of 786-O cells (MTT) (786-O cells [1]): significantly inhibited the proliferation
- cleavage of apoptotic markers (immunoblot) (786-O cells [2]; 10μM, 24hrs): cleavage of the apoptotic markers caspase 3 and 8 and PARP
- mode of PP5 inhibition (enzyme kinetics, Lineweaver-Burk plot) (recombinant PP5-His6): competitive inhibitors

SMILES: Cc1noc(C)c1S(=O)(=O)Nc1ccc(Cc2ccccc2)cc1 [Compound P053, (3,5-Dimethyl-4-isoxazolylsulfonyl)(p-benzylphenyl)amine]
- cell death (PI stained cells) (VHL-null ccRCC cells): selectively caused cell death
- cleavage of caspase 3 and PARP (786-O cells [2]; 10μM, 24hrs): increased cleavage of the executioner caspase 3
- cleavage of caspase 8 and caspase 9 (extrinsic versus intrinsic apoptosis) (786-O cells [2]; 10μM, 24hrs): cleavage of caspase 8 but not caspase 9
- induction of apoptosis (cleaved PARP, cleaved caspase 8) (786-O cells [2]; 10μM, 24hrs): ability to induce apoptosis

SMILES: CCCCN(c1ccc(Oc2ccccc2)cc1)S(=O)(=O)c1c(C)noc1C [Compound P058, N-Butyl(3,5-dimethyl-4-isoxazolylsulfonyl)(p-phenoxyphenyl)amine]
- induction of apoptosis (cleaved PARP, cleaved caspase 8) (786-O cells [2]; 10μM, 24hrs): ability to induce apoptosis

SMILES: Cc1noc(C)c1S(=O)(=O)N(CCCCl)c1ccc(Oc2ccccc2)cc1 [Compound P059, (3-Chloropropyl)(3,5-dimethyl-4-isoxazolylsulfonyl)(p-phenoxyphenyl)amine]
- induction of apoptosis (cleaved PARP, cleaved caspase 8) (786-O cells [2]; 10μM, 24hrs): ability to induce apoptosis

SMILES: Cc1noc(C)c1S(=O)(=O)N(CCCC#N)c1ccc(Oc2ccccc2)cc1 [Compound P075, 4-[(3,5-Dimethyl-4-isoxazolylsulfonyl)(p-phenoxyphenyl)amino]butyronitrile]
- induction of apoptosis (cleaved PARP, cleaved caspase 8) (786-O cells [2]; 10μM, 24hrs): ability to induce apoptosis

SMILES: COc1cc(OC)c(C=C2C(O)=Nc3ccccc32)c(OC)c1 [IC261]
- S194-FADD phosphorylation (A498 cells): increase in S194-FADD phosphorylation
- induction of extrinsic apoptosis (apoptotic markers) (786-O cells [2]; indicated amounts, 16hrs): induced extrinsic apoptosis in a dose-dependent manner
- S194-FADD phosphorylation (786-O cells [3]): increase in S194-FADD phosphorylation
- PP5 activity [4]: decreased PP5 activity
- apoptosis [4]: induced apoptosis

SMILES: CN1CCN(C(=O)C2C(C(=O)O)[C@H]3CC[C@@H]2O3)CC1 (some centres unmarked) [LB-100]
- inhibition of PP1 (PP1): inhibit PP5 and PP1
- inhibition of PP5 (PP5): inhibit PP5 and PP1

SMILES: CC1(C)CC(=O)c2c(C(F)(F)F)nn(-c3ccc(C(N)=O)c(N[C@H]4CC[C@H](O)CC4)c3)c2C1 [SNX-2112]
- RIPK1 protein levels (HEK293 cells; 16 hr): decreased RIPK1 protein levels
- FADD protein levels (HEK293 cells; throughout the time course): did not observe a decrease in FADD levels
- Hsp90 clients Tsc2, Akt and phos-Ser473-Akt protein levels (HEK293 cells; time course): destabilized and degraded

SMILES: Cc1noc(C)c1S(=O)(=O)Nc1cccc(C(=O)N2CCN(C(=O)CCC[C@@H]3SC[C@@H]4NC(=O)N[C@@H]43)CC2)c1 [biotin-P5, N-[3-(4-(4-[(3aS,4S,6aR)-2-Oxo-hexahydro-1H-thieno[3,4-d]imidazol-4-yl]butanoyl)piperazine-1-carbonyl)phenyl]-3,5-dimethyl-1,2-oxazole-4-sulfonamide]
- binding to PP2A (co-pulldown) (PP2A): did not bind to PP2A
- binding to PP5-FLAG (co-pulldown) (PP5-FLAG): binds

SMILES: Cc1ccc(N(CCCNC(=O)CCC[C@@H]2SC[C@@H]3NC(=O)N[C@@H]32)S(=O)(=O)c2c(C)noc2C)cc1C [biotin-P13, 4-[(3aS,4S,6aR)-2-Oxo-hexahydro-1H-thieno[3,4-d]imidazol-4-yl]-N-(3-[N-(3,4-dimethylphenyl)3,5-dimethyl-1,2-oxazole-4-sulfonamido]propyl}butanamide]
- binding of PP5 mutants to biotinylated compound ([5]; H304Q, M309C and W386F mutants): unable to bind
- binding of PP5 mutants to biotinylated compound compared to WT PP5 ([5]; R275A and Y451F mutants): increased binding
- binding of PP5 mutant to biotinylated compound compared to WT PP5 [6]: reduced binding
- binding to PP2A (co-pulldown) (PP2A): did not bind to PP2A
- binding to PP5-FLAG relative to biotin-P5 (PP5-FLAG; 10μM): bound more
- binding to PP5-FLAG (co-pulldown) (PP5-FLAG): binds

SMILES: COC(=O)C[C@H](NC(=O)[C@H](C)NC(=O)[C@@H](NC(=O)OCc1ccccc1)C(C)C)C(=O)CF [z-VAD-fmk, reference compound] (Cbz-Val-Ala-Asp(OMe)-CH2F)
- effect on IC261-induced extrinsic apoptosis (786-O cells [2]; 10μM for 1hr, then IC261 for 16hrs): reversed this effect

— paper PMC10592443 (Cell chemical biology, 2023)
